Data reported in patent US8329711B2, “Pyridone-substituted-dihydropyrazolopyrimidinone derivative” (MSD K.K., priority 2007, dated 2012).

Key:
[1] = system: Cdc2 (Cdk1) tyrosine 15 phosphorylation in WiDr cells; test: Cdc2 (Cdk1) tyrosine 15-phosphorylation-inhibitory effect in WiDr cells, gemcitabine-treated (ELISA); type: cell-based; details: Homo sapiens, 100 nM gemcitabine 24 hours, then test compound with nocodazole 8 hours, read-out: Cdc2-Y15 Phosphorylation-Inhibitory Effect (WiDr, +gemcitabine) (EC50)
Text: Pharmacological Test 2 (Method of Determining Drug Potency with Cells (Cdc2 (Cdk1) Tyrosine 15-Phosphorylation-Inhibitory Effect))
Fetal bovine serum (FBS) was gotten from Morgate; media RPMI1640 and DMEM were from Invitrogen; camptothecin was from Sigma; gemcitabine was from Nippon Eli Lilly; nocodazole and protease inhibitor cocktail were from Sigma; rabbit anti-Cdc2 antibody and mouse anti-Cdc2 antibody were from Santa Cruz Biotechnology; rabbit anti-tyrosine 15-phosphorylated Cdc2 antibody and horseradish peroxidase-labeled anti-mouse IgG antibody were from Cell Signaling Technology; sure blue reserve TMB peroxidase substrate was from Kirkegaard and Perry Laboratories.
Human non-small cell lung cancer cells (NCI-H1299) and human colon cancer cells (WiDr) were gotten from American Type Culture Collection (ATCC).
In the method of using WiDr cells, the cells were suspended in a medium of 10% FBS-added DMEM, and the cell suspension was applied to a 96-well Nunclondelta-processed plastic plate in an amount of 2000 cells/100 μL/well, in which the cells were incubated overnight in 5% CO2-95% air at 37° C. Gemcitabine was dissolved in PBS, and diluted with a medium of 10% FBS-added DMEM, and then this was applied to the plate on which the cells had been previously sowed, in an amount of 50 μL/well in such a manner that the final concentration of gemcitabine could be 100 nM. Then, the cells were incubated for 24 hours at 37° C. in 5% CO2-95% air. A test compound was stepwise diluted with DMSO, then diluted with 1200 nM nocodazole-containing, 10% FBS-added DMEM, and applied to the plate on which the […] cells had been sowed, in an amount of 50 μL/well. The cells were incubated for 8 hours at 37° C. in 5% CO2-95% air, then the culture was removed, and a cytolytic buffer was added to the plate in an amount of 100 μL/well, shaken at 4° C. for 2 hours, then frozen at −80° C., and thawed to give a cell solution. […] Cdc2 was determined through ELISA as follows: A rabbit anti-Cdc2 antibody solution, which had been diluted 200-fold with 50 mM carbonate-bicarbonate buffer (pH 9.6), was applied to a 96-well maxisorp plastic plate in an amount of 50 μL/well, and statically kept overnight at 4° C. so as to fix the antibody on the plate. […] Then, 1 M hydrochloric acid was added to it in an amount of 100 μL/well to stop the reaction, and this was analyzed through colorimetry. Tyrosine 15-phosphorylated Cdc2 was determined through ELISA as follows: A rabbit anti-tyrosine 15-phosphorylated Cdc2 antibody solution, which had been diluted 100-fold with 50 mM carbonate-bicarbonate buffer (pH 9.6), was applied to a 96-well maxisorp plastic plate in an amount of 50 μL/well, and statically kept overnight at 4° C. so as to fix the antibody on the plate. […]

Wee1 kinase = target: T1, Wee1 kinase (Homo sapiens, UniProt P30291); test: Wee1 kinase-inhibitory effect (33P-ATP filter assay with GST-tagged Wee1); type: biochemical; details: purified GST-Wee1, Poly(Lys,Tyr) substrate, 10 μM ATP, 30° C. for 30 minutes; read-out: Weel-Inhibitory Effect (IC50)
T1 construct: made in house; host or cells: Sf9 insect cells (recombinant baculovirus)
T1 sequence (P30291 whole entry): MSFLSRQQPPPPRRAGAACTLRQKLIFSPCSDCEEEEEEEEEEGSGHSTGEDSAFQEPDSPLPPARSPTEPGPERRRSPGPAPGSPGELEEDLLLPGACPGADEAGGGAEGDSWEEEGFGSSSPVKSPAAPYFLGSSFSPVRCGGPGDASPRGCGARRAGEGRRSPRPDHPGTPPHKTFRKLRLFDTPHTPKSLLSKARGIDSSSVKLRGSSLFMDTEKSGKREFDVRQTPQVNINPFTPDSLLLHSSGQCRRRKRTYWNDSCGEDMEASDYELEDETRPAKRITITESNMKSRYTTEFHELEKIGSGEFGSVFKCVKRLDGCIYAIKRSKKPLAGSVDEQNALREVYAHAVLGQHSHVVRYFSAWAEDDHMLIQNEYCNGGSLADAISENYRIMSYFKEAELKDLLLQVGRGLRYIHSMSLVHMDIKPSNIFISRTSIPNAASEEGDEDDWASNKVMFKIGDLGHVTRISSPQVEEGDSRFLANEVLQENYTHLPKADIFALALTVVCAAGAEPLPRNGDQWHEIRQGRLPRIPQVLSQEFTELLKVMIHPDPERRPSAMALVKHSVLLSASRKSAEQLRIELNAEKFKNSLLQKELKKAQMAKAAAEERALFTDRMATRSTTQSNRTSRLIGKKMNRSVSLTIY
Text: Pharmacological Test 1 (Wee1 Kinase-Inhibitory Effect)
(1) Purification of Wee1 Kinase:
A cDNA of Wee1 kinase with glutathion-S-transferase (GST) fused at the amino terminal thereof was inserted into a baculovirus expression vector to construct a recombinant baculovirus, with which cells of an insect cell line Sf9 were infected for high expression therein. The infected cells were collected and solubilized, and then the GST-tagged Wee1 kinase protein was adsorbed by a glutathion column, and eluted from the column with glutathion, and the active fraction was desalted in a desalting column to give a purified enzyme.
(2) Determination of Wee1 Kinase Activity:
In determination of the Wee1 kinase activity, a synthetic peptide, Poly(Lys,Tyr) Hydrobromide (Lys:Tyr (4:1)) bought from Sigma was used as the substrate.
The amount of the reaction liquid was 21.1 μL; and the composition of the reaction buffer was 50 mM Tris-HCl buffer (pH 7.4)/10 mM magnesium chloride/1 mM dithiothreitol. The purified Wee1 kinase, 2.5 μg of the substrate peptide, 10 μM of non-labeled adenosine triphosphate (ATP) and 1 μCi of [γ-^33P]-labeled ATP (2500 Ci/mmol or more) were added to it, and reacted at 30° C. for 30 minutes. Next, 10 μL of 350 mM phosphate buffer was added to the reaction system to stop the reaction. The substrate peptide was adsorbed by a P81 paper filter 96-well plate, then washed a few times with 130 mM phosphate buffer, and its radioactivity was counted with a liquid scintillation counter. The [γ-^33P]-labeled ATP was bought from Amersham Bioscience.
To add a test compound to the reaction system, the compound was diluted with dimethyl sulfoxide (DMSO) to prepare a series of dilutions. 1.1 μL of each dilution was added to the reaction system. As a control, 1.1 μL of DMSO was added to the reaction system.

Compound	EC50 [1] [nM]	IC50 (Wee1 kinase) [nM]
C=CCn1c(=O)c2cnc(Nc3ccc(N4CC[C@@H](N(C)C)C4)cc3)nc2n1-c1cccc(-n2ccccc2=O)n1 [Example 2, 6′-[2-allyl-6-({4-[(3R)-3-(dimethylamino)pyrrolidin-1-yl]phenyl}amino)-3-oxo-2,3-dihydro-1H-pyrazolo[3,4-d]pyrimidin-1-yl]-2H-1,2′-bipyridin-2-one]	110	18
C=CCn1c(=O)c2cnc(Nc3ccc(N4CC[C@H](N(C)C)C4)cc3)nc2n1-c1cccc(-n2ccccc2=O)n1 [Example 3, 6′-[2-allyl-6-({4-[(3S)-3-(dimethylamino)pyrrolidin-1-yl]phenyl}amino)-3-oxo-2,3-dihydro-1H-pyrazolo[3,4-d]pyrimidin-1-yl]-2H-1,2′-bipyridin-2-one]		16
C=CCn1c(=O)c2cnc(Nc3ccc(C4CCN(C)CC4)cc3)nc2n1-c1cccc(-n2ccccc2=O)c1 [Example 8]	170	24
C=CCn1c(=O)c2cnc(Nc3ccc(C4CCN(C)CC4)cc3)nc2n1-c1cccc(-n2ccccc2=O)n1 [Example 9, 6′-(2-Allyl-6-{[4-(1-methylpiperidin-4-yl)phenyl]amino}-3-oxo-2,3-dihydro-1H-pyrazolo[3,4-d]pyrimidin-1-yl)-2H-1,2′-bipyridin-2-one]		11
CN1Cc2cc(Nc3ncc4c(=O)n(C)n(-c5cccc(-n6ccccc6=O)n5)c4n3)ccc2C2(CC2)C1 [Example 38, 6′-{2-Methyl-6-[(2′-methyl-2′,3′-dihydro-1′H-spiro[cyclopropane-1,4′-isoquinolin]-7′-yl)amino]-3-oxo-2,3-dihydro-1H-pyrazolo[3,4-d]pyrimidin-1-yl}-2H-1,2′-bipyridin-2-one]		12.6
CC(C)n1c(=O)c2cnc(Nc3ccc4c(c3)CN(C)CC43CC3)nc2n1-c1cccc(-n2ccccc2=O)n1 [Example 39, 6′-{2-Isopropyl-6-[(2′-methyl-2′,3′-dihydro-1′H-spiro[cyclopropane-1,4′-isoquinolin]-7′-yl)amino)-3-oxo-2,3-dihydro-1H-pyrazolo[3,4-d]pyrimidin-1-yl]-2H-1,2′-bipyridin-2-one]		20.6

These reach a lower IC50 (Wee1 kinase). Values come first.

EC50 [1] [nM]	IC50 (Wee1 kinase) [nM]	Compound
92	10	C=CCn1c(=O)c2cnc(Nc3ccc(N4CCN(C)CC4)c(C)c3)nc2n1-c1cccc(-n2ccccc2=O)n1 [Example 11, 6′-(2-Allyl-6-{[3-methyl-4-(4-methylpiperazin-1-yl)phenyl]amino}-3-oxo-2,3-dihydro-1H-pyrazolo[3,4-d]pyrimidin-1-yl)-2H-1,2′-bipyridin-2-one]
86	7.2	C=CCn1c(=O)c2cnc(Nc3ccc(N4CCN(C)CC4)cc3)nc2n1-c1cc(F)cc(-n2ccccc2=O)c1 [Example 4, 2-allyl-1-[3-fluoro-5-(2-oxopyridin-1(2H)-yl)phenyl]-6-{[4-(4-methylpiperazin-1-yl)phenyl]amino}-1,2-dihydro-3H-pyrazolo[3,4-d]pyrimidin-3-one]
	6.9	C=CCn1c(=O)c2cnc(Nc3ccc(N4CC(F)(F)C4)cc3)nc2n1-c1cccc(-n2ccccc2=O)n1 [Example 17, 6′-(2-Allyl-6-{[4-(3,3-difluoroazetidin-1-yl)phenyl]amino}-3-oxo-2,3-dihydro-1H-pyrazolo[3,4-d]pyrimidin-1-yl)-2H-1,2′-bipyridin-2-one]
	6.9	C=CCn1c(=O)c2cnc(Nc3cccc(C4CCN(C)CC4)c3)nc2n1-c1cccc(-n2ccccc2=O)n1 [Example 27, 6′-(2-Allyl-6-{[3-(1-methylpiperizin-4-yl)phenyl]amino}-3-oxo-2,3-dihydro-1H-pyrazolo[3,4-d]pyrimidin-1-yl)-2H-1,2′-bipyridin-2-one]
	6.5	C=CCn1c(=O)c2cnc(Nc3ccc(OC)c(CO)c3)nc2n1-c1cccc(-n2ccccc2=O)n1 [Example 29, 6′-(2-Allyl-6-{[3-(hydroxymethyl)-4-methoxyphenyl]amino}-3-oxo-2,3-dihydro-1H-pyrazolo[3,4-d]pyrimidin-1-yl)-2H-1,2′-bipyridin-2-one]
	4.4	C#CCn1c(=O)c2cnc(Nc3ccc4c(c3)CN(C)CC4)nc2n1-c1cccc(-n2ccccc2=O)n1 [Example 42, 6′-{6-[(2-Methyl-1,2,3,4-tetrahydroisoquinolin-7-yl)amino]-3-oxo-2-(2-propynyl)-2,3-dihydro-1H-pyrazolo[3,4-d]pyrimidin-1-yl}-2H-1,2′-bipyridin-2-one]
